Results from paper PMC9267955, “Antidiabetic, Antiglycation, and Antioxidant Activities of Ethanolic Seed Extract of Passiflora edulis and Piceatannol In Vitro” (Molecules, 2022).
Marks after values point to notes of the source that are not given here.

Columns and labels:
[1] = test system: BSA/fructose + glucose fluorescent AGEs; experiment: Inhibition of AGE formation, initial stage of glycation (BSA/fructose + glucose); type: biochemical, bovine; conditions: BSA/fructose + glucose model, 7 days, 37 °C
Procedure: The formation of AGEs was measured after incubation of a system containing protein and carbohydrates. This assay was based on previous methods. The reaction system was obtained by adding 300 µL of plant extract or of the pure compound (at different concentrations), 150 µL D-fructose (200 mM), 150 µL of D-glucose (200 mM), and 300 µL of bovine serum albumin (BSA, 3 mg/mL) to a test tube. All these solutions, except plant extract, were dissolved in 0.05 M potassium phosphate buffer (pH 7.4) containing NaCl (100 mM) and NaN3 (0.02% w/v). The plant extract was prepared in a buffer containing 60% ethanol. The mixture was incubated in the dark at 37 °C for 7 days with constant stirring. After the incubation, 200 µL of the reaction mixture was transferred to a 96-well black plate, and fluorescent AGEs were measured using a microplate reader (Infinite® 200 PRO, TECAN, Männedorf, Switzerland) at λex = 360 and λem = 440 nm. […]. Aminoguanidine (AMG), a known AGE formation inhibitor, was used as a standard. The reaction mixture without inhibitors was used as a positive control. Color interference from the sample was eliminated by a sample control (buffer and sample). The fluorescence readings for the experimental treatment were blanked against extract blanks to eliminate the baseline fluorescence of the sample. The percentage of the AGE inhibition and IC50 was calculated as described in Section 3.3.1.

[2] = MGO capture using derivatization with OPD (HPLC); conditions: PESE 2 mg/mL, PIC 2 mM, AMG 2 mM; MGO 2 mM; 37 °C, 1 h
Procedure: MGO scavenging was tested using a described procedure, with slight modifications. The quantification of MGO was based on derivatization with OPD, leading to the formation of the product 2-methylquinoxyline (2-MQ). MGO and OPD were dissolved in phosphate buffer (50 mM, pH 7.4) to a concentration of 2 mM and 4 mM, respectively. […] The reaction system was composed of 125 μL of the MGO solution, 125 μL of phosphate buffer (negative control), or PESE incubated at 37 °C for 1 h. After 250 μL of the OPD solution was added, the tubes were kept for 30 min for the derivatization reaction between MGO and OPD to complete. Then, the chromatographic analysis was performed. All solutions were previously filtered (microfilter pore diameter 0.45 μm). […] The linear gradient for elution was: starting at 5% of solvent B, 0–3 min, 5 to 50% B; 3–16 min, isocratic in 50% B; 16–17 min, 50–90% B; 17–19 min, isocratic in 90% B and 19–19.5 min, 90–5% B. The derivatization product, 2-methylquinoxyline (2-MQ), was detected at 315 nm, with a retention time of 10 min. The percentage of trapping efficiency of MGO was calculated using the following equation: % trapping MGO = [100 − (peak area after adding sample/peak area without adding sample) × 100].

[3] = test system: amyloid fibrils of glycated BSA (BSA/MGO); experiment: Inhibition of amyloid fibril formation, ThT assay (BSA/MGO); type: biochemical, bovine; conditions: highest obtained, PESE 200, PIC 200, AMG 100 µg/mL
Procedure: (§1) The BSA-MGO assay was based on those described before, with some modifications. This experiment is based on the formation of fluorescent AGEs from the middle stage of protein glycation. MGO (1.5 mM) and BSA (3 mg/mL) were dissolved separately in 0.05 M phosphate buffer (pH 7.4) containing NaCl (100 mM) and NaN3 (0.02% w/v). Then, 300 μL of MGO was incubated with samples at different concentrations (dissolved in a buffer containing 60% ethanol) for an hour at 37 °C, in the dark, with constant stirring. After BSA (3 mg/mL) was added to the reaction mixture and incubation time was extended to 48 h at 37 °C in darkness. The rest of the procedure was the same as that for the BSA-glucose/fructose model that is described above. The percentage of the AGE inhibition and IC50 was calculated as described in Section 3.3.1.
The fibrillar state of modified BSA was determined with ThT as previously described. ThT is a probe that binds directly to amyloid fibrils to give a strong fluorescent signal and thus can be used to quantify β-amyloid due to protein glycation. Basically, 30 μL of glycated protein (approx. 1 mg/mL), obtained as described previously, was mixed with 100 μL ThT reagent (10 μM ThT in 100 mM phosphate buffer, pH 7.0), and fluorescence was collected at excitation/emission wavelengths of 450/490 nm in a microplate reader (Infinite® 200 PRO, TECAN, Männedorf, Switzerland). […]

BSA/MGO fluorescent AGEs = experiment: Inhibition of AGE formation, intermediate stage of glycation (BSA/MGO); type: biochemical, bovine; conditions: BSA/MGO model
Procedure: as §1

[4] = set-up: method as in PMID 31683151; conditions: compound 5 mM, MGO 5 mM; cited from earlier work
[5] = DPPH radical scavenging assay
Procedure: After incubation in the dark for 30 min, the absorbance was read at 516 nm, using a UV–Vis spectrophotometer (Agilent Technologies, Santa Clara, CA, USA). Results were expressed as the half-maximal inhibitory concentration (IC50) in μg/mL.

[6] = Superoxide anion radical scavenging activity
Procedure: The potential of the samples to scavenger superoxide anion radicals was determined, with minor modifications. […] Phosphate buffer (19 mM, pH 7.4) was used to dissolve NADH, NBT, and PMS. QCT was used as means of comparison. The experiment was conducted at 37 °C in a microplate reader (Infinite® 200 PRO, TECAN, Männedorf, Switzerland), and the absorbance was measured at 560 nm. The results were expressed as IC50 of extract solution in μg/mL.

Procedure for HOCl scavenging activity: Briefly, a freshly prepared HOCl solution, by adjusting the pH of a 1% solution of NaOCl to 6.2 with dropwise addition of diluted H2SO4, was diluted to 30 µM, using 100 mM phosphate buffer pH 7.4. […] QCT was used as means of comparison. Fluorescence assays were performed in a microplate reader (Infinite® 200 PRO, TECAN, Männedorf, Switzerland), at 37 °C, at wavelengths of 505 ± 10 nm and 530 ± 10 nm, for excitation and emission, respectively. The results were expressed as IC50 (μg/mL) of extract solution.

| Compound | MGO capture percentage [4] | further results |
| --- | --- | --- |
| N=C(N)NN [AMG, Aminoguanidine] | – | Antiglycation IC50, Fructose + Glucose [1]: 25.5 ± 5.0 ^c μg/mL; MGO trapping [2]: 99.6%; Inhibition of Amyloid Fibrils (%), MGO [3]: 30.3 ± 4.4 ^c %; Antiglycation IC50, MGO (BSA/MGO fluorescent AGEs): 50.4 ± 1.8 ^c μg/mL |
| O=c1c(O)c(-c2ccc(O)c(O)c2)oc2cc(O)cc(O)c12 [QCT, quercetin] | 21.4% | HOCl IC50 (HOCl scavenging activity): 1.9 ± 0.3 µg/mL; DPPH• IC50 ([5]; 30 min): 4.8 ± 1.0 µg/mL; IC50 ([5]; data in parenthesis are in μM): 15.9 µM; O2•− IC50 [6]: 8.8 ± 0.3 µg/mL; IC50 ([6]; data in parenthesis are in μM, read-out: O2•− IC50 (in parenthesis) (converted)): 29.2 µM |
| O=c1cc(-c2ccc(O)cc2)oc2cc(O)cc(O)c12 [apigenin] | 36.5% | – |
| COc1cc(-c2cc(=O)c3c(O)cc(O)cc3o2)ccc1O [chrysoeriol] | 41.8% | – |
| O=c1c(-c2ccc(O)cc2)coc2cc(O)cc(O)c12 [genistein] | 43.4% | – |
| O=c1c(O)c(-c2ccc(O)cc2)oc2cc(O)cc(O)c12 [kaempferol] | 58.9% | – |
| O=c1cc(-c2ccc(O)c(O)c2)oc2cc(O)cc(O)c12 [luteolin] | 40.7% | – |
| CC1OC(OCC2OC(Oc3c(-c4ccc(O)cc4)oc4cc(OC5OC(C)C(O)C(O)C5O)cc(O)c4c3=O)C(O)C(O)C2O)C(O)C(O)C1O (stereo not drawn) [robinin] | 54.4% | – |
| C[C@@H]1O[C@@H](OC[C@H]2O[C@@H](Oc3c(-c4ccc(O)c(O)c4)oc4cc(O)cc(O)c4c3=O)[C@H](O)[C@@H](O)[C@@H]2O)[C@H](O)[C@H](O)[C@H]1O [rutin] | 49.3% | – |
| procyanidins | 46.3% | – |
